Results reported in PubChem BioAssay AID2060887 (Molecular Pharmacology Branch, DTP, NCI, 2025).
pIC50: −log10 of the molar value. “And” between values parts separate entries of the source, which are not always exact repeats. Equal entries are not always repeated.

Test system: 782815-120-R-J1-PDC complex spheroid viability
Assay: Anticancer human tumor 782815-120-R-J1-PDC patient-derived colon adenocarcinoma cell line growth inhibition [RAS]
Conditions: for viability, T/C: stronger effect = lower value; active = viability on the fitted dose curve at most 10% of control; inactive = the rest
Excerpt: RAS pathway inhibitors in Combinations in Complex Spheroids
A high-throughput screen of multi-cell type tumor spheroids was designed to identify active combinations of RAS pathway inhibitors and targeted small molecules. Complex spheroids include a stromal component modeled by human endothelial cells (HUVEC) and fibroblasts modeled by human mesenchymal stem cells (MSCs). The concentration ranges selected for each drug and investigational agent were based upon clinically achievable concentrations if the clinical Cmax of the agent was known.
Compounds. The drugs and investigational agents: abemaciclib (NSC768073), cobimetinib (NSC768068), divarasib (GDC6063, NSC841802), docetaxel (NSC628503), GDC-1971 (RLY-1971, NSC841576), gemcitabine (NSC613327), inavolisib (NSC800729), ipatasertib (NSC767898), KB-0742 (NSC834161), MRTX-1133 (NSC836407), osimertinib (NSC779217), RMC-4630 (NSC839698), RMC-6236 (NSC851965), RMC-6291 (NSC852671), Ro-3306 (NSC812927), sapanisertib (NSC764658), SN-38 (NSC673596), staurosporine (NSC755774), SY5609 (NSC837396), and tovorafenib (DAY101, NSC766906), were obtained from the National Cancer Institute (NCI) Developmental Therapeutics Program Chemical Repository. The FDA-approved anticancer drug set is available from the NCI Developmental Therapeutics Program. […] The stock solutions were prepared in dimethyl sulfoxide (DMSO, Sigma-Aldrich, St. Louis, MO, cat. D2650) at 800-fold the tested concentration and stored at -70 degrees C prior to their use. All drugs and investigational agents were tested over a range starting from a high concentration at or near the clinical Cmax and decreasing in half-log increments. If the clinical Cmax for an agent had not been determined, the highest concentration tested was 10 microM.
Cell Culture. All cells were maintained in an incubator at 37 degrees C and 5% CO2 with 95% humidity. The PDC lines were cultured according to standard operating procedures established by the NCI PDMR. All PDCs were thawed and cultured in Matrigel-coated flasks prepared with a working solution of 1X Ham's F-12 nutrient mix, without supplementation (Invitrogen, Waltham, MA, cat. 11765054), 100 U/mL penicillin-streptomycin (Invitrogen, cat. 15140122), and 2.5% Matrigel (Corning Inc., Corning, NY, cat. 354248) for the first three passages. The 362531-283-R-J2-PDC and 782815-120-R-J1-PDC lines were cultured in 6C/Colon 1B media, which includes advanced DMEM/F-12 (Thermo Fisher Scientific, cat. 12634028), 10 mM HEPES (Thermo Fisher Scientific, cat. 15630080), 1X GlutaMAX supplement (Thermo Fisher Scientific, cat. 35050061), 0.1 mg/mL primocin (InvivoGen, San Diego, CA, cat. ant-pm-2), 10% defined fetal bovine serum, heat inactivated (HyClone Laboratories Inc., Logan, UT, cat. SH30070.03HI), 50% L-WRN conditioned media (ATCC, cat. CRL-3276), 1.25 mM N-Acetyl-L-cysteine (Sigma-Aldrich, cat. A9165), 10 mM nicotinamide (Sigma-Aldrich, cat. N0636), 1X B-27 supplement (Thermo Fisher Scientific, cat. 17504044), 1X N-2 supplement (Thermo Fisher Scientific, cat. 17502048), 50 ng/mL human EGF (Thermo Fisher Scientific, cat. PHG0311), and 10 microM Y-27632 dihydrochloride (Tocris Bioscience, cat. 1254). The K12877-001-R-J1-PDC line was cultured in 6I media, which includes all 6C/Colon 1B media plus 10 ng/mL human FGF-10 (PeproTech, cat. 100-26), 1 ng/mL human FGF-2 (PeproTech, cat. 100-18B), 1 µM prostaglandin E2 (Tocris Bioscience, cat. 2296), […] hydrocortisone (Sigma-Aldrich, cat. H4001), and […] bovine insulin (Sigma-Aldrich, cat. I6634). The K86415-001-R-J1-PDC line was cultured in 6D media, which includes all 6C/Colon 1B media components minus the L-WRN conditioned media. The 485176-168-R4-J1-PDC was cultured in PANC media, which includes all 6C/Colon 1B media plus 100 ng/mL human FGF-10 (PeproTech, cat. 100-26), 500 nM SB-431542 (Selleckchem, cat. S1067), and 10 nM gastrin (Tocris Bioscience, cat. 3006). […]
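Note: spheroids exposed to compounds for 7 days before reading.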

CC(Nc1ccc2c(c1)OCCn1cc(N3C(=O)OCC3C(F)F)nc1-2)C(N)=O (centres undefined)
inactive: viability, T/C (compound 0.0316 µM) 102% (2×) and 103% and 93.2% | viability, T/C (compound 0.1 µM) 97.5% [middle of 4 runs] | viability, T/C (compound 0.316 µM) 90.9% [middle of 4 runs] | viability, T/C (compound 1 µM) 87.2% [middle of 4 runs] | viability, T/C (compound 3.16 µM) 100% [middle of 4 runs] | viability, T/C (compound 10 µM) 93% [middle of 4 runs]
< 5.00: pIC50 (curve of compound)

C[C@@H](NC(=O)c1ncnc(N)c1Cl)c1ncc(C(=O)Nc2cc(C(F)(F)F)c(Cl)cn2)s1 + C=CC(=O)N1CCN(c2nc(OCC3CCCN3C)nc3c(F)c(-c4nc(N)cc(C)c4C(F)(F)F)c(Cl)cc23)C(C)C1
inactive: viability, T/C (second compound 0.00316 µM, first compound 0.0316 µM) 100% | viability, T/C (second compound 0.00316 µM, first compound 0.1 µM) 106% | viability, T/C (second compound 0.00316 µM, first compound 0.316 µM) 97% | viability, T/C (second compound 0.00316 µM, first compound 1 µM) 86% | viability, T/C (second compound 0.00316 µM, first compound 3.16 µM) 83.8% | viability, T/C (second compound 0.00316 µM, first compound 10 µM) 72.1% | viability, T/C (second compound 0.01 µM, first compound 0.0316 µM) 104% | viability, T/C (second compound 0.01 µM, first compound 0.1 µM) 105% | viability, T/C (second compound 0.01 µM, first compound 0.316 µM) 104% | viability, T/C (second compound 0.01 µM, first compound 1 µM) 88.6% | viability, T/C (second compound 0.01 µM, first compound 3.16 µM) 80.8% | viability, T/C (second compound 0.01 µM, first compound 10 µM) 71.8% | viability, T/C (second compound 0.0316 µM, first compound 0.0316 µM) 116% | viability, T/C (second compound 0.0316 µM, first compound 0.1 µM) 107% | viability, T/C (second compound 0.0316 µM, first compound 0.316 µM) 96.6% | viability, T/C (second compound 0.0316 µM, first compound 1 µM) 90% | viability, T/C (second compound 0.0316 µM, first compound 3.16 µM) 90.2% | viability, T/C (second compound 0.0316 µM, first compound 10 µM) 71.2% | viability, T/C (second compound 0.1 µM, first compound 0.0316 µM) 111% | viability, T/C (second compound 0.1 µM, first compound 0.1 µM) 101% | viability, T/C (second compound 0.1 µM, first compound 0.316 µM) 96.8% | viability, T/C (second compound 0.1 µM, first compound 1 µM) 99.8% | viability, T/C (second compound 0.1 µM, first compound 3.16 µM) 89.9% | viability, T/C (second compound 0.1 µM, first compound 10 µM) 66.3% | viability, T/C (second compound 0.316 µM, first compound 0.0316 µM) 108% | viability, T/C (second compound 0.316 µM, first compound 0.1 µM) 113% | viability, T/C (second compound 0.316 µM, first compound 0.316 µM) 97.3% | viability, T/C (second compound 0.316 µM, first compound 1 µM) 101% | viability, T/C (second compound 0.316 µM, first compound 3.16 µM) 85% | viability, T/C (second compound 0.316 µM, first compound 10 µM) 74.5% | viability, T/C (second compound 1 µM, first compound 0.0316 µM) 114% | viability, T/C (second compound 1 µM, first compound 0.1 µM) 108% | viability, T/C (second compound 1 µM, first compound 0.316 µM) 98.5% | viability, T/C (second compound 1 µM, first compound 1 µM) 110% | viability, T/C (second compound 1 µM, first compound 3.16 µM) 92.6% | viability, T/C (second compound 1 µM, first compound 10 µM) 65.5%
< 5.00: pIC50 (curve of first compound, second compound 0.00316 µM) | pIC50 (curve of first compound, second compound 0.01 µM) | pIC50 (curve of first compound, second compound 0.0316 µM) | pIC50 (curve of first compound, second compound 0.1 µM) | pIC50 (curve of first compound, second compound 0.316 µM) | pIC50 (curve of first compound, second compound 1 µM)
